ChEMBL document CHEMBL6127119 (J Med Chem, 2024)
Values after ≈ are worked out from the molar mass of the structure shown. Active and inactive are the calls of the source. No cut-off for these calls is given here.

Assays:
[1] = tested on: Escherichia coli; test: Antibacterial activity against Escherichia coli AB1157 incubated for 16 to 24 hrs by CLSI based broth microdilution method; type: functional; details: time 16-24 hrs
[2] = tested on: Peptidoglycan; test: Potency index, ratio of vancomycin Ka to test compound Ka for Ac-Lys(D-isoAsp)-D-Ala-D-Ala lipid II model peptide moiety assessed as association constant by ITC analysis
[3] = tested on: Staphylococcus aureus; test: Post-antibiotic effect in Staphylococcus aureus MRSA252 assessed as decrease in bacterial titer at 20 times measured after 7 hrs; type: functional
[4] = AUClast in CD-1 mouse at 10 mg/kg, iv measured for 24 hrs by UPLC analysis; type: ADME, organism-based; details: in vivo
[5] = tested on: Escherichia coli; test: Induction of cytoplasmic membrane permeabilization in Escherichia coli AB1157 at 16 ug/ml measured for 40 mins by PI/NPN staining based assay; type: functional, organism-based; details: dose 16.0 µg/ml
[6] = tested on: Staphylococcus aureus; test: Potency index, ratio of Norvancomycin MIC to test compound MIC for vancomycin-intermediate Staphylococcus aureus incubated for 16 to 24 hrs by CLSI based broth microdilution method; type: functional; details: time 16-24 hrs
[7] = tested on: Escherichia coli; test: Bactericidal activity against Escherichia coli AB1157 assessed as reduction in bacterial count at MIC measured after 24 hrs by time kill assay; type: functional
[8] = tested on: Klebsiella pneumoniae; test: Antibacterial activity against Klebsiella pneumoniae clinical isolate incubated for 16 to 24 hrs by CLSI based broth microdilution method; type: functional; details: time 16-24 hrs
[9] = tested on: Staphylococcus aureus; test: Post-antibiotic effect in Staphylococcus aureus MRSA252 assessed as time of effect at 10 times; type: functional
[10] = tested on: Enterococcus faecalis; test: Induction of cytoplasmic membrane depolarization in Enterococcus faecalis ATCC29212 by DiSC3(5) staining based analysis; type: functional, organism-based
[11] = tested on: Peptidoglycan; test: Binding affinity to Ac-Lys(D-isoAsp)-D-Ala-D-Ala lipid II model peptide moiety assessed as association constant by ITC analysis
[12] = Half life in CD-1 mouse at 10 mg/kg, iv measured for 24 hrs by UPLC analysis; type: ADME, organism-based; details: in vivo
[13] = tested on: Staphylococcus aureus; test: Induction of membrane disruption in Staphylococcus aureus MRSA252 assessed as leakage of protoplasm content at 1 to 8 ug/ml incubated for 4 to 24 hrs by TEM analysis; type: functional, organism-based; details: dose 1-8 µg/ml, time 4-24 hrs
[14] = tested on: Escherichia coli; test: Bactericidal activity against Escherichia coli AB1157 assessed as reduction in bacterial count measured after 24 hrs by time kill assay; type: functional, organism-based
[15] = tested on: Escherichia coli; test: Induction of inner membrane permeabilization in Escherichia coli AB1157 measured for 50 mins by PI staining based analysis; type: functional, organism-based; details: dose 1-128 µg/ml
[16] = tested on: Acinetobacter baumannii; test: Antibacterial activity against Carbapenem-resistant Acinetobacter baumannii clinical isolate incubated for 16 to 24 hrs by CLSI based broth microdilution method; type: functional; details: time 16-24 hrs
[17] = tested on: Peptidoglycan; test: Potency index, ratio of vancomycin Ka to test compound Ka for Ac-Lys(D-isoAsp)-D-Ala-D-Ala lipid II model peptide moiety
[18] = tested on: Staphylococcus aureus; test: Antibacterial activity against methicillin-resistant Staphylococcus aureus clinical isolate incubated for 16 to 24 hrs by CLSI based broth microdilution method; type: functional; details: time 16-24 hrs
[19] = tested on: Staphylococcus epidermidis; test: Antibacterial activity against methicillin-resistant Staphylococcus epidermidis clinical isolate incubated for 16 to 24 hrs by CLSI based broth microdilution method; type: functional; details: time 16-24 hrs
[20] = tested on: Staphylococcus aureus; test: Induction of cytoplasmic membrane depolarization in methicillin-resistant Staphylococcus aureus MRSA252 by DiSC3(5) staining based analysis; type: functional, organism-based
[21] = tested on: Staphylococcus aureus; test: Induction of drug resistance in vancomycin-intermediate Staphylococcus aureus Mu50 assessed as change in MIC after 20 passages by broth microdilution method; type: functional, organism-based
[22] = tested on: Peptidoglycan; test: Binding affinity to Ac-Lys(Ac)-D-Ala-D-Ala lipid II model peptide moiety assessed as association constant by ITC analysis
[23] = tested on: Peptidoglycan; test: Potency index, ratio of vancomycin Ka to test compound Ka for Ac-Lys(Gly5)-D-Ala-D-Ala lipid II model peptide moiety
[24] = tested on: Staphylococcus aureus; test: Antibacterial activity against Staphylococcus aureus Mu50 at 1:1 ratio of compound and FPP at […] incubated for 16 to 24 hrs by absorbance based assay; type: functional, organism-based; details: dose 128.0 µg/ml, time 16-24 hrs
[25] = tested on: Peptidoglycan; test: Binding affinity to Ac-Lys(D-isoAsp)-D-Ala-D-Ala lipid II model peptide moiety assessed as change in Gibb's free energy by ITC analysis
[26] = tested on: Peptidoglycan; test: Binding affinity to Ac-Lys(Ac)-D-Ala-D-Ala lipid II model peptide moiety assessed as change in Gibb's free energy by ITC analysis
[27] = tested on: Staphylococcus haemolyticus; test: Antibacterial activity against methicillin-resistant Staphylococcus haemolyticus clinical isolate incubated for 16 to 24 hrs by CLSI based broth microdilution method; type: functional; details: time 16-24 hrs
[28] = tested on: Escherichia coli; test: Bactericidal activity against Escherichia coli AB1157 assessed as reduction in bacterial count at 4 times MIC measured after 24 hrs by time kill assay; type: functional
[29] = tested on: Enterococcus faecalis; test: Antibacterial activity against Enterococcus faecalis clinical isolate incubated for 16 to 24 hrs by CLSI based broth microdilution method; type: functional; details: time 16-24 hrs

`CC(C)C[C@@H](N)C(=O)N[C@H]1C(=O)N[C@@H](CC(N)=O)C(=O)N[C@H]2C(=O)N[C@H]3C(=O)N[C@H](C(=O)N[C@H](C(=O)NCc4ccc(-c5ccc(CNC(=N)N)cc5)cc4)c4cc(O)cc(O)c4-c4cc3ccc4O)[C@H](O)c3ccc(c(Cl)c3)Oc3cc2cc(c3O[C@@H]2O[C@H](CO)[C@@H](O)[C@H](O)[C@H]2O[C@H]2C[C@](C)(N)[C@H](O)[C@H](C)O2)Oc2ccc(cc2Cl)[C@H]1O` gave an MIC [1] of 8 µg/mL (≈ 4.79 µM), a Ratio [2] of 17.3 and an Activity [3] of 1.2 log10CFU/ml. The AUC(0-t) at 24 h [4] was 28400 ng·h/mL, the Activity [5] was “Active” and the Ratio [6] was 2. For the same compound, the Activity [7] was 1 log10CFU/ml, the MIC [8] was greater than 128 µg/mL and the Time [9] was 6 h. For the same compound, the Activity [10] was “Active”, the Ka [11] was 687000 M⁻¹ and the half-life [12] was 13.4 h. The Activity [13] was “Active”, the Activity [14] was “Dose-Dependent Effect” and the Activity [15] was “Dose-Dependent Effect”. It also gave an MIC [16] of 64 µg/mL (≈ 38.3 µM), a Ratio [17] of 2.7 and an MIC [18] of no more than 0.03 µg/mL. The MIC [19] was no more than 0.03 µg/mL, the Activity [20] was “inactive” and the Activity [21] was “inactive”. The Ka [22] was 1.32e+06 M⁻¹, the Ratio [23] was 1.7 and the Activity [24] was “Active”. For the same compound, the deltaG [25] was -7.96 kcal/mol, the deltaG [26] was -8.35 kcal/mol and the MIC [27] was no more than 0.03 µg/mL. The Activity [28] was 2 log10CFU/ml and the MIC [29] was no more than 0.03 µg/mL.
